In patent US11673866B2, “Estrogen receptor beta ligands for the prevention and treatment of multiple sclerosis (MS) and other demyelinating, inflammatory and neurodegenerative diseases” (The Board of Trustees of the University of Illinois, priority 2018, dated 2023):
“Also recorded” adds a separate entry of the source.

Key:
CXCL1 = CXCL1 staining in thoracic ventral column white matter of EAE mice; type: in vivo, mouse; parameters: key to CNS Chemokines: CXCL1: ‘+’ indicate marker was significantly (p ≤ 0.05) increased in treatment group relative to vehicle; ‘−’ indicates marker was significantly (p ≤ 0.05) decreased in treatment group relative to vehicle; ○: ‘o’ indicate marker did not change relative to vehicle; conditions: vs vehicle; for CXCL1 staining intensity, thoracic ventral column: therapeutic treatment (postEAE)
Excerpt: Immunohistochemistry: Before histological staining, 40-μm free floating sections were thoroughly washed with PBS to remove residual sodium azide (Crawford et al., 2010). Sections were permeabilized with 0.3% Triton X-100 in ix PBS and 15% normal goat serum (NGS). Myelination, gliosis and immune markers were visualized by the following primary antibodies at a concentration of 1:500 unless otherwise noted: chicken anti-myelin basic protein (MBP; polyclonal, EMD Millipore, Darmstadt, Germany), chicken anti-glial fibrillary acidic protein (GFAP; EMD Millipore, Darmstadt), rat anti-cluster of differentiation 45 (CD45; clone 30-F11, BD Biosciences, San Diego, Calif.), mouse anti-ionized calcium-binding adapter molecule 1/allograft inflammatory factor-1 (Iba1/AIF1; clone 20A12.1, EMD Millipore, Darmstadt, Germany), goat anti-CXCL1 (R&D systems; Minneapolis, Minn.) at 1:250 and mouse anti-adenomatous polyposis coli (CC-1; clone CC-1, Genetex, Irvine, Calif.). Secondary staining was performed using polyclonal fluorophore-conjugated antibodies from ThermoFisher Scientific at a concentration of 1:500 unless otherwise specified: goat anti-chicken Alexa Fluor® 555 (AF555), goat anti-rabbit Alexa Fluor® 647 (AF647), donkey anti-chicken IgY Cy3 (EMD Millipore), goat anti-rat IgG AF647, goat anti-rabbit IgG Cy3 (EMD Millipore), goat anti-mouse IgG2b AF647 and rabbit anti-goat AF647. Nuclei were counter stained with 4′,6-Diamidino-2-phenylindole (DAPI, 2 ng/ml; Molecular Probes) for 10 minutes after incubation with secondary antibodies, and sections were mounted on glass slides, allowed to dry, and coverslipped with Fluoromount G mounting medium (Thermo Fisher Scientific) for imaging.
Confocal Microscopy: Thoracic spinal cord dorsal and ventral column sections, as well as CC were imaged using an Olympus BX61 confocal microscope (Olympus America Inc., Center Valley, Pa.) using a 10× and 40× objective. Z-stack projections were compiled using SlideBook 6 software (Intelligent Imaging Innovations, Inc., Denver, Colo.). Immunostaining was quantified using unbiased stereology (Crawford et al., 2010). All images (RGB) were Confocal converted to grayscale, split, and separated by color channel using imageJ version 2.2.0-rc-46/1.50 g (NIH). To avoid experimenter bias, auto-adjustment of brightness and contrast, as well as threshold of staining signal, was carried out by ImageJ. MBP^+, GFAP^+, CD45^+, Iba1^+, CC1^+, and CXCL1^+, staining intensity was measured as percent area of positive immunoreactivity within the region of interest and intensity of signal determined by ImageJ.
Under inflammatory conditions, such as those generated by MS, astrocytes undergo NF-κB-dependent upregulation of CXCL1, which is thought to recruit OPCs to the site of demyelinating injury (Omari et al., 2006; Xue et al., 2014). Thus, having observed that IndCl raised its production by peripheral leukocytes, CXCL1 expression in thoracic ventral column white matter was next evaluated.

[1] = Uterus to body weight ratio in EAE mice; type: in vivo, mouse; conditions: therapeutic treatment (postEAE), female EAE mice
Excerpt: Estrogens increase uterine weight by acting primarily through ERα (Hewitt and Korach, 2003).

ERβ = ERβ (Homo sapiens, UniProt Q92731); test: Relative binding affinity (RBA) to estrogen receptor beta, radiometric measurement; conditions: for β/α Ratio: ratio of RBA ERβ to RBA ERα; for RBA ERβ: relative value to 100% for E2 by radiometric measurement
Sequence of ERβ (Q92731 whole entry, species assumed): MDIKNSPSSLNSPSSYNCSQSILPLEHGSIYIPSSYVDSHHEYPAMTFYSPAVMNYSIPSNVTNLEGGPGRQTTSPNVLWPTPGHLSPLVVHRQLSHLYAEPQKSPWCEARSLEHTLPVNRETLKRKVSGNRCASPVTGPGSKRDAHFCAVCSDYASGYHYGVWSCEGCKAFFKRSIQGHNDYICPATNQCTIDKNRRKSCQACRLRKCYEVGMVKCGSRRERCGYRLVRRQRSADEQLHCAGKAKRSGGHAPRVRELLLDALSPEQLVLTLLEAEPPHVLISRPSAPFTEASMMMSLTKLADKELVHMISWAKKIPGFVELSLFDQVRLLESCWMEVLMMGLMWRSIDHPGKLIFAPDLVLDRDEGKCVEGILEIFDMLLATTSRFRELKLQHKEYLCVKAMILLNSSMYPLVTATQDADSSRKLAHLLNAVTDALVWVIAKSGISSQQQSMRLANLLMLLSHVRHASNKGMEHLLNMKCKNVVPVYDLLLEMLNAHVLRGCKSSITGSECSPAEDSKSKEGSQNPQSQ

[2] = tested on: primary oligodendrocyte and oligodendrocyte precursor cells (OL/OPCs); test: Primary OPC culture differentiation (MBP immunostaining, DAPI); type: cell-based, mouse; conditions: for number of MBP+ OLs (differentiated OLs) / branched OLs / complex branching cells: 10 nM, vs vehicle-treated cells; for number of MBP+ OLs (differentiated OLs): 3 days in differentiating media
Method: Primary OPC Cultures: Primary OPCs, isolated from postnatal day P1 C57BL/6 male and female mouse cortices as described previously, were treated with 10 nM ligands in differentiating medium for 3 days (Tiwari-Woodruff et al., 2001; Tiwari-Woodruff et al., 2006). Primary OPC were cultured into 8-well chamber slides (three wells per condition, 2.5×10^5 cells/well) for three days to attach and […] in differentiating media (consisting of DMEM-F12 with triiodothyronine- and thyroxine-containing Sato as well as penicillin, streptomycin, insulin, N-acetyl-L-cysteine, forskolin, ciliary neurotrophic factor, neurotrophin-3, and platelet-derived growth factor receptor α (Tiwari-Woodruff et al., 2001)). A positive control (IndCl), a negative control (Vehicle consisting of the media+EtOH mixture used to dissolve IndCl), and a normal control (differentiating media alone) were used for comparison. At the end of the treatment period, cells were fixed, stained by immunocytochemistry (primary antibody polyclonal chicken myelin basic protein (MBP, Millipore AB9348), shown in green and co-stained with nuclear stain—DAPI shown in blue), and imaged with an Olympus BX61 confocal microscope (Olympus America Inc., Center Valley, Pa.) at 10× magnification (3 images per well). Cells were counted using the ImageJ multipoint tool, and counts were then divided by the image area (mm^2). Average cell density for each condition was then divided by the normal condition cell density. Analysis of OL differentiation consisted of counting the number of MBP+ cells and process extensions that were longer than the respective cell-body diameter and tracking the number of highly branched MBP+ cells (with three or more processes) (Monnerie et al., 2017). Statistics were performed using GraphPad Prism 6 Software (La Jolla, Calif.). One-way ANOVA with Tukey's posthoc test for multiple comparisons was used to generate p-values, and data are presented as mean SEM (with α≤0.05).
Primary OPC cultures were used as a convenient cell-based assay to characterize the proliferation and/or differentiation effects of the new IndCl analogues and to select those most suitable for more extensive studies to be done in comparison with the parental ligand, IndCl. 48 hours after plating OPCs, one of seven IndCl analogues (FIG. 1A) was added to differentiating media at a concentration of 10 nM (De Angelis et al., 2005; Saijo et al., 2011). OPCs were allowed to differentiate for 3 days in the presence of IndCl or analogues, at which point they were fixed, immunostained for OPC/OL markers, and quantified. […] The total number of cells in culture was not altered by any treatment (FIGS. 1B and 1D).

[3] = Post (therapeutic, postEAE) treatment of EAE mice

β/α Ratio (ERβ) | RBA ERβ (ERβ) [%] | SMILES | CNS Chemokines: CXCL1 (CXCL1; [3]) | CNS Chemokines: CXCL1 (CXCL1; Pre (prophylactic, preEAE) E2 treatment of EAE mice) | uterus to body weight ratio [1] | CXCL1 staining intensity, thoracic ventral column (CXCL1) | number of MBP+ OLs (differentiated OLs) [2] | branched OLs / complex branching cells [2] | MBP+/DAPI ratio (OPC differentiation) ([2]; FIG. 10B)
 |  | C[C@]12CC[C@@H]3c4ccc(O)cc4CC[C@H]3[C@@H]1CC[C@@H]2O [E2, 170 estradiol] | + | ○ |  |  |  |  | 
107 | 32.1 | Oc1ccc(-n2nc3ccc(O)cc3c2Cl)cc1 [IndCl, chloroindazole] | + |  | neither IndCl nor its analogues significantly increased this ratio | significant increase; also recorded: significantly increased | significantly increased |  | 
27.1 | 10.9 | Oc1ccc(-n2nc3ccc(O)cc3c2Cl)c(Cl)c1 [IndCl-o-Cl, 3-chloro-2-(2-chloro-4-hydroxyphenyl)-2H-indazol-5-ol] | + |  |  | significant increase; also recorded: significantly increased | significant increase; also recorded: significantly increased | increase in the percentage of branched OLs | 
48.9 | 21.1 | Cc1cc(O)ccc1-n1nc2ccc(O)cc2c1Cl [IndCl-o-Me, 3-chloro-2-(4-hydroxy-2-methylphenyl)-2H-indazol-5-ol] | + |  |  | significant increase; also recorded: significantly increased | significant increase; also recorded: significantly increased | increase in the percentage of branched OLs | greatest increase
